Columns and labels:
Oppioid µ = Oppioid µ (Homo sapiens, UniProt P35372); assay: CNS receptor binding assay, opioid µ; details: MAP4343 10 µM; [^3H] DAMGO; Human recombinant (HEK-293 cells); read-out: % Inhibition of control specific binding
Experimental: (§1) MAP4343 has been screened for in vitro affinity to 80 different CNS neurotransmitters receptors using various validated binding assays.
(§2) Table 4. In vitro affinity of MAP4343 (10 µM) for CNS neurotransmitter receptors associated with side effects and/or abuse liability. Data are the average of two individual assays for each receptor and are expressed as % inhibition of the control specific binding of the reference compound. Results showing an inhibition higher than 50% are considered to represent significant effects of the test compound.

Wistar (WI) rats = assay: Forced swimming test (FST), WI rats; type: in vivo, rat; details: dose-ranging, Fig. 6A
Experimental: 3B-methoxy-PREG (also referred to as "MAP4343" in Example 4) was dissolved in sesame oil by sonication using a Sonifer-450 (Branson Ultrasonics Corporation, Danbury, USA) during 1 cycle of 5 pulses in sesame oil. Fluoxetine (Biotrend, Köln, Germany) and Ketamine (Sigma-Aldrich, St-Quentin Fallvier, France) were dissolved in sterile saline solution (NaCl 0.9%). The drug formulations were prepared freshly each day of treatment. MAP4343 was administered subcutaneously (ranging of 1-15 mg/Kg/day) while fluoxetine and ketamine were injected intraperitonealy (10 mg/Kg/day and 30 mg/Kg/day, respectively).
Rats were submitted to the forced swimming test (FST), according the procedure initially described by (Detke et al., 1995) and slightly modified by (Bianchi et al., 2002). Briefly, rats were individually placed into a Plexiglas cylinder (40 cm height, 20 cm diameter) containing 25 cm of water at 25 ± 1°C, under 50 lux illumination. After a pre-test session of 15 min, rats were removed, dried and returned to its housed cage. […] The pre-test and test sessions were recorded using a video camera placed above the cylinder for subsequent behavioral analysis. The immobility time (in sec) was blindly measured by two independent experimenters from recorded videos. […]
The effects of a dose-ranging administration of MAP4343 were tested in WI and WKY rats on their immobility time measured in FST.

Serotoninergic 5-HT2A = Serotoninergic 5-HT2A (Homo sapiens, UniProt P28223); assay: CNS receptor binding assay, 5-HT2A; details: MAP4343 10 µM; [^3H] ketanserin; Human recombinant (HEK-293 cells); read-out: % Inhibition of control specific binding
Experimental: as §1, §2

Serotoninergic 5-HT1B = Serotoninergic 5-HT1B (Rattus norvegicus, UniProt P28564); assay: CNS receptor binding assay, 5-HT1B; details: MAP4343 10 µM; [^125I] CYP + (-) propranolol; rat cerebral cortex; read-out: % Inhibition of control specific binding
Experimental: as §1, §2

Serotoninergic 5-HT3 = Serotoninergic 5-HT3 (Homo sapiens, UniProt P46098); assay: CNS receptor binding assay, 5-HT3; details: MAP4343 10 µM; [^3H] BRL 43694; Human recombinant (CHO cells); read-out: % Inhibition of control specific binding
Experimental: as §1, §2

[1] = biological target: Serotoninergic Transporter (Homo sapiens, UniProt P31645); assay: CNS receptor binding assay, serotoninergic transporter; details: MAP4343 10 µM; [^3H] imipramine; Human recombinant (CHO cells); read-out: % Inhibition of control specific binding
Experimental: as §1, §2

[2] = biological target: T1, Muscarinic (Cholinergic) M5 (Homo sapiens, UniProt P08912); assay: CNS receptor binding assay, M5; details: MAP4343 10 µM; [^3H] 4-DAMP; Human recombinant (CHO cells); read-out: % Inhibition of control specific binding
T1 construct: expressed in transfected cells; host or cells: CHO cells
Experimental: as §1, §2

GABA (non-selective) = assay: CNS receptor binding assay, GABA (non-selective); details: MAP4343 10 µM; [^3H] GABA; rat cerebral cortex
Experimental: as §1, §2

Serotoninergic 5-HT2B = Serotoninergic 5-HT2B (Homo sapiens, UniProt P41595); assay: CNS receptor binding assay, 5-HT2B; details: MAP4343 10 µM; [^125I] (±) DOI; Human recombinant (CHO cells); read-out: % Inhibition of control specific binding
Experimental: as §1, §2

Serotoninergic 5-HT2C = Serotoninergic 5-HT2C (Homo sapiens, UniProt P28335); assay: CNS receptor binding assay, 5-HT2C; details: MAP4343 10 µM; [^3H] mesulergine; Human recombinant (CHO cells); read-out: % Inhibition of control specific binding
Experimental: as §1, §2

NMDA PCP site = assay: CNS receptor binding assay, NMDA PCP site; details: MAP4343 10 µM; [^3H] TCP; rat cerebral cortex
Experimental: as §1, §2

Histaminergic H1 = Histaminergic H1 (Homo sapiens, UniProt P35367); assay: CNS receptor binding assay, H1; details: MAP4343 10 µM; [^3H] pyrilamine; Human recombinant (HEK-293 cells); read-out: % Inhibition of control specific binding
Experimental: as §1, §2

Dopaminergic D1 = Dopaminergic D1 (Homo sapiens, UniProt P21728); assay: CNS receptor binding assay, D1; details: MAP4343 10 µM; [^3H] SCH 23390; Human recombinant (CHO cells); read-out: % Inhibition of control specific binding
Experimental: as §1, §2

[3] = biological target: T2, Mineralocorticoid Receptor (MR) (Rattus norvegicus, UniProt P22199); assay: Radioligand binding assay, steroid hormone receptor MR; details: MAP4343 10 µM; 4.5 nM [^3H] D-Aldosterone; Wistar Rat kidney
T2 construct: Wistar Rat kidney; from tissue; host or cells: Wistar rat kidney
Experimental: Binding affinity of 3β-methoxy-PREG (MAP4343) for receptors of steroid hormones was evaluated using radioligand binding assays.
Table 3. Affinity of MAP4343 (10 µM) for steroid hormones receptors measured by radioligand binding assays. […] None of the results met significance criteria at concentrations used.

Noradrenergic β2 = Noradrenergic β2 (Homo sapiens, UniProt P07550); assay: CNS receptor binding assay, β2; details: MAP4343 10 µM; [^3H] (-) CGP 12178; Human recombinant (CHO cells); read-out: % Inhibition of control specific binding
Experimental: as §1, §2

T2 sequence (P22199 whole entry): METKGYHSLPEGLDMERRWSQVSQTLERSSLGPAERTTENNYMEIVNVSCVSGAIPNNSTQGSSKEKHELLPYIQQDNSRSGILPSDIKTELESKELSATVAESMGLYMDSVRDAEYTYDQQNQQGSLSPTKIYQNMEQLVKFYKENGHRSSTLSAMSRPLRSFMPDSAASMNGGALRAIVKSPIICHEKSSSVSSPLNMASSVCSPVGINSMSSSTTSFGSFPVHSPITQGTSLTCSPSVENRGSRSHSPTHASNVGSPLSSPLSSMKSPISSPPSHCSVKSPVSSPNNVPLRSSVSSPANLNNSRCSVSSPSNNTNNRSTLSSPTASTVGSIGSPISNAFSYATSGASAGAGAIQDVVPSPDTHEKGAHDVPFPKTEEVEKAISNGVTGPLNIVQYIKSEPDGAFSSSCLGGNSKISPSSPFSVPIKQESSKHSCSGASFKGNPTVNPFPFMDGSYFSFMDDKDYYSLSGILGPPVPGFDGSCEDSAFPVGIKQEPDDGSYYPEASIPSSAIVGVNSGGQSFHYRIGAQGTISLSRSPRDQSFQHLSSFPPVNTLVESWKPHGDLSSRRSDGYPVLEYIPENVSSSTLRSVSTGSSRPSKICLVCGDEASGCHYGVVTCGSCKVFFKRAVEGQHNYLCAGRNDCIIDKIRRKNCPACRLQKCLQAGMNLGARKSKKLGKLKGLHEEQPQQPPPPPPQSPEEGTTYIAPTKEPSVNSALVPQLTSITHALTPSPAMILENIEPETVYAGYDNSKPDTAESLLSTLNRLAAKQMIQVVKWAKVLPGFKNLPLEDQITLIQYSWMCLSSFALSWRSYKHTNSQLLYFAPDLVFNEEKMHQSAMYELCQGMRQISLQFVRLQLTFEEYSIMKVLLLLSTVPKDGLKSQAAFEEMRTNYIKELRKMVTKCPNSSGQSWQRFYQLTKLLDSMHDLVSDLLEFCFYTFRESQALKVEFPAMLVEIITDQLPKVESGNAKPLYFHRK
Chain of Serotoninergic 5-HT2A (P28223 whole entry): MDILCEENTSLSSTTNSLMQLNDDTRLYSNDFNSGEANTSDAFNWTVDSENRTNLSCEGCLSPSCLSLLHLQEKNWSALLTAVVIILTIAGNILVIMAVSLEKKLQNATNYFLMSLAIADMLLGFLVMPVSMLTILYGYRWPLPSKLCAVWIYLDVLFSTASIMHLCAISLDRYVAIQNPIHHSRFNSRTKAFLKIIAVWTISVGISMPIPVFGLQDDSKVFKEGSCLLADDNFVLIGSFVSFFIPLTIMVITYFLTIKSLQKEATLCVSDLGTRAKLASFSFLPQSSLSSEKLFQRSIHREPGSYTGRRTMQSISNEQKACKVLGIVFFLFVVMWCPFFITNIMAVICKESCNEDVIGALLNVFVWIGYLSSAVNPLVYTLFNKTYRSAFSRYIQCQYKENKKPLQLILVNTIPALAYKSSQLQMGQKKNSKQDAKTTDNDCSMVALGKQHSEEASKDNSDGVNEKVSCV
Chain of Serotoninergic 5-HT2B (P41595 whole entry): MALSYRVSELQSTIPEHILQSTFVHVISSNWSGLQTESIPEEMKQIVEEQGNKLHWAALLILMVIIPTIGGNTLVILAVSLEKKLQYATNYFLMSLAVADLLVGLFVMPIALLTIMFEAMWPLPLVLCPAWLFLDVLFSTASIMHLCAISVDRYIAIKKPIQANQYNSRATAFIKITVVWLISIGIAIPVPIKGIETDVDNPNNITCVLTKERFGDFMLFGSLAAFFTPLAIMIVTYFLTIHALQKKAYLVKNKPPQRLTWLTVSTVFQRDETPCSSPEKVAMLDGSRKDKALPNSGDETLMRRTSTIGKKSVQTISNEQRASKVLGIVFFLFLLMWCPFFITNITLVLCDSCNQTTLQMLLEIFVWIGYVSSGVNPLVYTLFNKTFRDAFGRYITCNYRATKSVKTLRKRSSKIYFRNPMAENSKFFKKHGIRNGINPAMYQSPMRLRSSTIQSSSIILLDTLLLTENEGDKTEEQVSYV
Chain of Serotoninergic Transporter (P31645 whole entry): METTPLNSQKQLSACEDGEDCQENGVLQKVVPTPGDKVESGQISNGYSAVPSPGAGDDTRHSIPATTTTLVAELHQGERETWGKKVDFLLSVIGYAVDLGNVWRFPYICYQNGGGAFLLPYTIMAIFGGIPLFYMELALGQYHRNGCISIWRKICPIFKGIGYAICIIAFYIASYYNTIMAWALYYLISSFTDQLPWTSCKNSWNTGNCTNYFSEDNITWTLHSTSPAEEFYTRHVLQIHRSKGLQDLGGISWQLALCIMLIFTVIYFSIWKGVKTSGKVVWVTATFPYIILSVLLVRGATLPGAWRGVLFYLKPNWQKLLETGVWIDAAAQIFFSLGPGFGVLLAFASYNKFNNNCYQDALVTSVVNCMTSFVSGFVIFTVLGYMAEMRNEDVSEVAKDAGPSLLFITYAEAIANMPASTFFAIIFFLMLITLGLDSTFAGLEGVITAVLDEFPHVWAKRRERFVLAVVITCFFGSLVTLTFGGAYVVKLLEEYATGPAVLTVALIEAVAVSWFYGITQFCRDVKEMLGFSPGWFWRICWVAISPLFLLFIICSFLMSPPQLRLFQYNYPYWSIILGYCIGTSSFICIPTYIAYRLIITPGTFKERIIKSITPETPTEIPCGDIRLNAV
Chain of Noradrenergic β2 (P07550 whole entry): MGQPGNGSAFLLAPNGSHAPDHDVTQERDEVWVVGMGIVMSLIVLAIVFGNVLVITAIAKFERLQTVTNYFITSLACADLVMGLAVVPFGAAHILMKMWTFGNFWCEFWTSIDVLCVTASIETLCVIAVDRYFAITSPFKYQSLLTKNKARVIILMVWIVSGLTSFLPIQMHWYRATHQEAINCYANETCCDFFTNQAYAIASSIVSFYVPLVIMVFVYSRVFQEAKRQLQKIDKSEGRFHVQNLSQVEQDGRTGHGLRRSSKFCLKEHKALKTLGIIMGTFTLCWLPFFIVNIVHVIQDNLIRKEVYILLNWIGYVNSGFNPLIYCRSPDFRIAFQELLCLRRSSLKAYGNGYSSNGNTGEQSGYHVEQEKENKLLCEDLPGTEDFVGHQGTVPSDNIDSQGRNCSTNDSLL
Chain of Serotoninergic 5-HT1B (P28564 whole entry): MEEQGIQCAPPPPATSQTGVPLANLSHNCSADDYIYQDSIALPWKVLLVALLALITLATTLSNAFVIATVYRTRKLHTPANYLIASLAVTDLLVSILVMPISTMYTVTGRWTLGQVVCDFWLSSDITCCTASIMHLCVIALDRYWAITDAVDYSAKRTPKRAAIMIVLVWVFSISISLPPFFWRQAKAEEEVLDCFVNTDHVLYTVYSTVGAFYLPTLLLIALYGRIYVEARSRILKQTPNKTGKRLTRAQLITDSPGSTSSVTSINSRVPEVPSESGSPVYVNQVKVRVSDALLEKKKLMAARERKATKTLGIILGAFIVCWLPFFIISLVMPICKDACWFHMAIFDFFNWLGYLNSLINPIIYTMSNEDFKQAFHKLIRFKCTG
Chain of Dopaminergic D1 (P21728 whole entry): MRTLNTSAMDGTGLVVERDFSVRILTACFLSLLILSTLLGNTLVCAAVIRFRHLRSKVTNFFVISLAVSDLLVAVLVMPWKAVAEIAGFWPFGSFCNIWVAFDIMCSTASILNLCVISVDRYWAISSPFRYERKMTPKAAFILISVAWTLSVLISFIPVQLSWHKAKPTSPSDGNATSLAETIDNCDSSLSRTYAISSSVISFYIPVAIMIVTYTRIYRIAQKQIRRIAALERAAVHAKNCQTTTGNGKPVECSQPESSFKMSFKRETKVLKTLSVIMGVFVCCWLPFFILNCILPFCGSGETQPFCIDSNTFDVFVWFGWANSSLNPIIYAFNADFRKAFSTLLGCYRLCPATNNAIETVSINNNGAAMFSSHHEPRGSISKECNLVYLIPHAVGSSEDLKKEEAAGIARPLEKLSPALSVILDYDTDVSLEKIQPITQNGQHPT
Chain of Serotoninergic 5-HT3 (P46098 24-478): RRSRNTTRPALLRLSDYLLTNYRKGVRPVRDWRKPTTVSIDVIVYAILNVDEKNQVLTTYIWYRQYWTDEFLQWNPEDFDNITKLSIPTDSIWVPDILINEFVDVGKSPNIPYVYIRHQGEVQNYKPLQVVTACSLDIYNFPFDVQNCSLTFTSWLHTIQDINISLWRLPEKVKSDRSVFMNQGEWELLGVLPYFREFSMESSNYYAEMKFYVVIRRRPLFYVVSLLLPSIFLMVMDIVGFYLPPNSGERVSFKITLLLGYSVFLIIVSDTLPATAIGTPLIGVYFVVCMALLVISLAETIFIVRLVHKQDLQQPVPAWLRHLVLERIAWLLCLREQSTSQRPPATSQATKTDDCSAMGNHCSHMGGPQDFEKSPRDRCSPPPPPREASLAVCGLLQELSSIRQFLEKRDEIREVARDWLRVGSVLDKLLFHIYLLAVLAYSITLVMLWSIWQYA
Chain of Oppioid µ (P35372 whole entry): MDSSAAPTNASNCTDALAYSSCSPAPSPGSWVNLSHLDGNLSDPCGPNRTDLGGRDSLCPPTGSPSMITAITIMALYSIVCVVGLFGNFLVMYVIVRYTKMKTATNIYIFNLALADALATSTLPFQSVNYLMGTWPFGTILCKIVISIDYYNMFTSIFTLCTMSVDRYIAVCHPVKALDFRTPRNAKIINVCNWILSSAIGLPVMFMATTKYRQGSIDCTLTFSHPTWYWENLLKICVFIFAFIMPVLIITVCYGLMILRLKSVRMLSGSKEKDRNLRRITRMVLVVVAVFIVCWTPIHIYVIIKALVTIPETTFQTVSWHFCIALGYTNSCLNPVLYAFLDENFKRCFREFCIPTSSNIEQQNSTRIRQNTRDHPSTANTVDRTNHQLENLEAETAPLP

CO[C@H]1CC[C@@]2(C)C(=CC[C@H]3[C@@H]4CC[C@H](C(C)=O)[C@@]4(C)CC[C@@H]32)C1 (stereo in doubt) [MAP4343, 3β-methoxy-pregna-5-ene-20-one]
inhibition at 10 µM (Oppioid µ): 0%
immobility time measured in FST, change as compared to WI receiving vehicle alone (Wistar (WI) rats; MAP4343 10 mg/kg): -27%
immobility time measured in FST, change as compared to WI receiving vehicle alone (Wistar (WI) rats; MAP4343 15 mg/kg): -31%
inhibition at 10 µM (Serotoninergic 5-HT2A): 1%
inhibition at 10 µM (Serotoninergic 5-HT1B): 4%
inhibition at 10 µM (Serotoninergic 5-HT3): 10%
inhibition at 10 µM [1]: 3%
inhibition at 10 µM [2]: 12%
% Inhibition of control specific binding (GABA (non-selective)): 2%
inhibition at 10 µM (Serotoninergic 5-HT2B): -4%
inhibition at 10 µM (Serotoninergic 5-HT2C): 7%
% Inhibition of control specific binding (NMDA PCP site): -10%
inhibition at 10 µM (Histaminergic H1): 9%
inhibition at 10 µM (Dopaminergic D1): 2%
% inhibition [3]: 25%
inhibition at 10 µM [3]: < 25%
inhibition at 10 µM (Noradrenergic β2): -4%
